Reference: patent US9708314B2, “Heterocyclic amide compound” (NISSAN CHEMICAL INDUSTRIES, LTD., priority 2013, dated 2017)

Tests used:
Assay type in all cases: in vivo
[1] = system: Cyperus difformis; experiment: Test Example 3: herbicidal effect by application to foliage (Wagner pot, water depth 0.1-0.5 cm); conditions: Nineteenth Table; application to foliage; application herbicide amount 320 g/ha
Method in brief: (§1)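 Scores (0–5) reflect herbicidal ratio three weeks after a foliar spray: 0 is 5% or less, 5 is 90% or more. Plants had grown 14 days in alluvial soil pots in a 25–30 °C greenhouse before treatment with water-diluted emulsion at a set g/ha.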

[2] = system: directly sowed Oryza sativa; experiment: Test Example 3: effect on crop by application to foliage (Wagner pot, water depth 0.1-0.5 cm); conditions: Nineteenth Table; application to foliage; application herbicide amount 320 g/ha
Method in brief: as §1

[3] = system: Monochoria vaginalis; experiment: Test Example 1: herbicidal activity, application before weed generation in submerged conditions; conditions: Seventeenth Table; for C: Monochoria vaginalis (herbicidal effect grade): Application herbicide amount 320 g/ha; for C (Monochoria vaginalis) herbicidal ratio grade: application herbicide amount 320 g/ha
Method in brief: (§2)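 Submerged pot test: alluvial soil, 4 cm water, seeds sown mixed, 2.5-leaf rice transplanted; emulsion in water applied to surface day of sowing, dose g/ha; greenhouse 25–30° C.; 3 wk; 0–5 rating.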

[4] = system: Scirpus juncoides; experiment: as above; conditions: Seventeenth Table; for B: Scirpus juncoides (herbicidal effect grade): Application herbicide amount 320 g/ha; for B (Scirpus juncoides) herbicidal ratio grade: application herbicide amount 320 g/ha
Method in brief: as §2

| Structure (SMILES) | E (herbicidal effect grade) [1] | b (effect on crop grade) [2] | C: Monochoria vaginalis (herbicidal effect grade) [3] | B: Scirpus juncoides (herbicidal effect grade) [4] | C (Monochoria vaginalis) herbicidal ratio grade [3] | B (Scirpus juncoides) herbicidal ratio grade [4] |
| --- | --- | --- | --- | --- | --- | --- |
| Cc1nnc(NC(=O)c2ccc(C(F)(F)F)n3c(CC(=O)NC(C)C)nnc23)o1 [1-061] | 3 (Herbicidal ratio of 40% or more and less than 70%) | 1 (Herbicidal ratio of 5% or more and less than 20%) | – | – | – | – |
| C=CCc1nnc2c(C(=O)Nc3nnco3)ccc(C(F)(F)F)n12 [1-158] | 4 (Herbicidal ratio of 70% or more and less than 90%) | – | 0 (Herbicidal ratio of 5% or less (almost no effect)) | 4 (Herbicidal ratio of 70% or more and less than 90%) | – | – |
| Cc1nnc(NC(=O)c2ccc(C(F)(F)F)n3c(CC(F)(F)F)nnc23)o1 [1-162] | 2 (Herbicidal ratio of 20% or more and less than 40%) | – | 0 (Herbicidal ratio of 5% or less (almost no effect)) | 2 (Herbicidal ratio of 20% or more and less than 40%) | – | – |
| C#CCN(C)c1nnc2c(C(=O)Nc3nnco3)ccc(C(F)(F)F)n12 [1-163] | 4 (Herbicidal ratio of 70% or more and less than 90%) | – | 4 (Herbicidal ratio of 70% or more and less than 90%) | 4 (Herbicidal ratio of 70% or more and less than 90%) | – | – |
| CN(CCC#N)c1nnc2c(C(=O)Nc3nnco3)ccc(C(F)(F)F)n12 [1-164] | 4 (Herbicidal ratio of 70% or more and less than 90%) | – | 4 (Herbicidal ratio of 70% or more and less than 90%) | 5 (Herbicidal ratio of 90% or more (almost completely withered)) | – | – |
| C=CCN(C)c1nnc2c(C(=O)Nc3nnc(C)o3)ccc(C(F)(F)F)n12 [1-166] | – | 2 (Herbicidal ratio of 20% or more and less than 40%) | 2 (Herbicidal ratio of 20% or more and less than 40%) | 3 (Herbicidal ratio of 40% or more and less than 70%) | – | – |
| Cc1nnc(NC(=O)c2ccc(C(F)(F)F)n3c(CC#N)nnc23)o1 [1-168] | – | 3 (Herbicidal ratio of 40% or more and less than 70%) | – | – | – | – |
| COCCc1nnc2c(C(=O)Nc3nnc(C)o3)ccc(C(F)(F)F)n12 [1-173] | – | 2 (Herbicidal ratio of 20% or more and less than 40%) | – | – | – | – |
| Cn1nnnc1NC(=O)c1ccc(C(F)(F)F)n2c(SC3CCCC3)nnc12 [2-096] | 5 (Herbicidal ratio of 90% or more (almost completely withered)) | – | 4 (Herbicidal ratio of 70% or more and less than 90%) | 5 (Herbicidal ratio of 90% or more (almost completely withered)) | – | – |
| Cn1nnnc1NC(=O)c1ccc(C(F)(F)F)n2c(SCc3ccc(Cl)nc3)nnc12 [2-097] | 4 (Herbicidal ratio of 70% or more and less than 90%) | – | 3 (Herbicidal ratio of 40% or more and less than 70%) | 4 (Herbicidal ratio of 70% or more and less than 90%) | – | – |
| CCSc1nnc2c(C(=O)Nc3nnnn3CCOC)ccc(C(F)(F)F)n12 [2-098] | 5 (Herbicidal ratio of 90% or more (almost completely withered)) | – | – | – | 4 (Herbicidal ratio of 70% or more and less than 90%) | 5 (Herbicidal ratio of 90% or more (almost completely withered)) |
| CCSc1nnc2c(C(=O)Nc3ncnn3C)ccc(C(F)(F)F)n12 [4-003] | 0 (Herbicidal ratio of 5% or less (almost no effect)) | – | – | – | 0 (Herbicidal ratio of 5% or less (almost no effect)) | 2 (Herbicidal ratio of 20% or more and less than 40%) |
